Tests used:
[1] = system: pAKT in T47D (PI3Kα H1047R mutant) cells; assay: Inhibition of pAKT (alphaLISA Surefire Ultra AKT 1/2/3 pS473) in T47D cells; format: cell-based; settings: Homo sapiens; T47D (PI3Kα H1047R mutant) cells, 24 hr compound incubation, alphaLISA pS473; read-out: T47D (H1047R) pAKT 24 hr (IC50)
Method: The ability of a compound of Formula (I) to inhibit the formation of pAKT was measured using alphaLISA Surefire Ultra AKT 1/2/3 (pS473) Assay Kit (#ALSU-PAKT-B50K) was obtained from Perkin Elmer (Waltham, MA).
To prepare assay plates for pAKT alphaLISA assays, cells were trypsinized, resuspended in fresh media, and viable cells were counted utilizing trypan blue exclusion. Prior to seeding, cells were washed with PBS and resuspended in HBSS (Gibco, #14025092). T47D (12,000/w), SKBR3 (12,000/w), or MKN1 (24,000/w) cells were seeded at 12 μl per well in a solid white flat bottom 384 cell culture plate (Perkin Elmer #6007680).
Immediately after seeding, cells were dosed using an Echo Liquid Handler (Beckman Coulter) with compounds at a 10.4 μm starting concentration and serially diluted (1:4) for a total of 10 concentrations. 14 vehicle (DMSO) and 14 positive control (Alpelisib @3.125 μm) wells were included on each assay plate. Cells were incubated with the compounds (solubilized in DMSO) for approximately 24 hours at 37° C. After 24 hours of treatment, cells were lysed with 3 μl of the 5× lysis buffer (provided and incubated at room temperature for 15 min on a microtiter plate shaker). Once cells were sufficiently lysed, 7.5 μl of the acceptor bead mix (made using the manufacturers recommended dilutions) was added to each well and left on the microtiter plate shaker for 1 min prior to incubating plates at room temperature for 1 hour, in the absence of light. After 1 hour of incubation with the acceptor bead mix, 7.5 μl of the donor bead mix (made using the manufacturers recommended dilutions) was added to each well and left on the microtiter plate shaker for 1 min prior to incubating plates at room temperature overnight in the absence of light. Plates were then imaged the following day using a CLARIOstar microplate reader (BMG Labtech, Germany).
Percent of control values were calculated by subtracting the average signal from the positive control (alpelisib) treated wells from all treated wells (including DMSO control wells) and then divided by the average signal from the vehicle DMSO treated control wells. Percent of vehicle control values were plotted as log(inhibitor) vs. response—Variable slope (four parameters) for curve fitting and IC50 values were determined using XLfit.

[2] = system: T47D (PI3Kα H1047R mutant) cells; assay: Cell viability (CellTiter-Glo 2.0) in T47D cells; format: cell-based; settings: Homo sapiens, T47D, 72 h, approximately 72 hours
Method: This Example illustrates that representative compounds of the invention decrease the viability of cells.
The ability of a compound of Formula (I) to decrease the viability of cells was measured using CellTiter-Glo 2.0 (CTG) Luminescent Cell Viability Assay (#G9241) obtained from Promega (Madison, WI).
To prepare assay plates for viability assays, cells were trypsinized, resuspended in fresh media, and viable cells were counted utilizing trypan blue exclusion. T47D, SKBR3, or MKN1 cells were seeded at 1000 cells in 30 μl per well in a solid white flat bottom 384 cell culture plate (Perkin Elmer #6007680) and incubated at 37° C. overnight.
Assay day 1, cells were dosed using an Echo Liquid Handler (Beckman Coulter) with compounds at a 10 μm starting concentration and serially diluted (1:4) for a total of 10 concentrations. Cells were incubated for approximately 72 hours with the compounds (solubilized in DMSO) at 37° C. After 72 hours of treatment, cell plates were equilibrated to room temperature before adding 15 μl of CTG to each well, plates were then covered in aluminum foil to protect from light, incubated at room temperature for 30 minutes on a microtiter plate shaker, and luminescence readings were collected using a CLARIOstar microplate reader (BMG Labtech, Germany). Percent of vehicle control values were plotted as log(inhibitor) vs. response—Variable slope (four parameters) for curve fitting and IC50 values were determined using XLfit.

| Compound | IC50 [1] | IC50 [2] |
| --- | --- | --- |
| Cc1cc([C@@H](C)Nc2ccc(Cl)nc2C(=O)O)c2nc(N3C4CCC3COC4)c(C#N)nc2c1 [Example 120, 3-(((1R)-1-(3-(3-oxa-8-azabicyclo[3.2.1]octan-8-yl)-2-cyano-7-methylquinoxalin-5-yl)ethyl)amino)-6-chloropicolinic acid] | 2.4 nM | 56.4 nM |
| COC[C@@]1(F)CCN(c2nc3c([C@@H](C)Nc4ccc(Cl)nc4C(=O)O)cc(C)cc3nc2C#N)C1 (single isomer, unassigned) [Example 164] | 2.1 nM | 55 nM |
| Cc1cc([C@@H](C)Nc2ccc(Cl)nc2C(=O)O)c2nc(N3CC[C@H](CO)C3)c(C#N)nc2c1 [Example 158, 6-chloro-3-(((R)-1-(2-cyano-3-((S)-3-(hydroxymethyl)pyrrolidin-1-yl)-7-methylquinoxalin-5-yl)ethyl)amino)picolinic acid] | 3.6 nM | 88.1 nM |
| Cc1cc([C@@H](C)Nc2ccc(Cl)nc2C(=O)O)c2nc(N3CC(F)(F)C4(CC4)C3)c(C#N)nc2c1 [Example 116, (R)-6-chloro-3-((1-(2-cyano-3-(7,7-difluoro-5-azaspiro[2.4]heptan-5-yl)-7-methylquinoxalin-5-yl)ethyl)amino)picolinic acid] | 15 nM | 202 nM |
| Cc1cc([C@@H](C)Nc2ccccc2C(=O)O)c2nc(N3CC(F)(F)C3)c(C#N)nc2c1 [Example 127, (R)-2-((1-(2-cyano-3-(3,3-difluoroazetidin-1-yl)-7-methylquinoxalin-5-yl)ethyl)amino)benzoic acid] | 8.4 nM | 296 nM |
| Cc1cc([C@@H](C)Nc2ccc(Cl)nc2C(=O)O)c2nc(N3C[C@H]4C[C@@H]3CO4)c(C#N)nc2c1 [Example 174, 3-(((R)-1-(3-((1R,4R)-2-oxa-5-azabicyclo[2.2.1]heptan-5-yl)-2-cyano-7-methylquinoxalin-5-yl)ethyl)amino)-6-chloropicolinic acid] | 4.4 nM | 36.6 nM |
| Cc1cc([C@@H](C)Nc2ccccc2C(=O)O)c2nc(N3CCC4(CC3)C(F)(F)C4(F)F)c(C#N)nc2c1 [Example 129, (R)-2-((1-(2-cyano-7-methyl-3-(1,1,2,2-tetrafluoro-6-azaspiro[2.5]octan-6-yl)quinoxalin-5-yl)ethyl)amino)benzoic acid] | 18.8 nM | 330 nM |
| COC[C@]1(F)CCN(c2nc3c([C@@H](C)Nc4ccc(Cl)nc4C(=O)O)cc(C)cc3nc2C#N)C1 (single isomer, unassigned) [Example 165] | 5.6 nM | 97 nM |
| Cc1cc([C@@H](C)Nc2ccc(Cl)nc2C(=O)O)c2nc(N(C)CCC(=O)N(C)C)c(C#N)nc2c1 [Example 114, (R)-6-chloro-3-((1-(2-cyano-3-((3-(dimethylamino)-3-oxopropyl)(methyl)amino)-7-methylquinoxalin-5-yl)ethyl)amino)picolinic acid] | 11 nM | 190 nM |
| Cc1cc([C@@H](C)Nc2ccc(Cl)nc2C(=O)O)c2nc(N3CCN(c4ccc(C(F)(F)F)cn4)CC3)c(C#N)nc2c1 [Example 179, (R)-6-chloro-3-((1-(2-cyano-7-methyl-3-(4-(5-(trifluoromethyl)pyridin-2-yl)piperazin-1-yl)quinoxalin-5-yl)ethyl)amino)picolinic acid] | 3.9 nM | 77.3 nM |

The next compounds have a lower IC50 [1] than those just listed; values first:

| IC50 [1] | IC50 [2] | Compound |
| --- | --- | --- |
| 1.9 nM | 126 nM | Cc1cc([C@@H](C)Nc2ccc(Cl)nc2C(=O)O)c2nc(NCCC(F)(F)F)c(C#N)nc2c1 [Example 124, (R)-6-chloro-3-((1-(2-cyano-7-methyl-3-((3,3,3-trifluoropropyl)amino)quinoxalin-5-yl)ethyl)amino)picolinic acid] |
| 1.7 nM | 44 nM | COC(=O)c1nc(Cl)ccc1N[C@H](C)c1cc(C)cc2nc(C#N)c(N3CC[C@](C)(F)C3)nc12 (single isomer, unassigned) [Example 181] |
| 1.7 nM | 34.5 nM | Cc1cc([C@@H](C)Nc2ccc(Cl)nc2C(=O)O)c2nc(N3CC[C@H](F)C3)c(C#N)nc2c1 [Example 176, 6-chloro-3-(((R)-1-(2-cyano-3-((S)-3-fluoropyrrolidin-1-yl)-7-methylquinoxalin-5-yl)ethyl)amino)picolinic acid] |
| 1.6 nM | 35 nM | Cc1cc([C@@H](C)Nc2ccc(Cl)nc2C(=O)O)c2nc(N3CCc4ccncc4C3)c(C#N)nc2c1 [Example 162, (R)-6-chloro-3-((1-(2-cyano-3-(3,4-dihydro-2,7-naphthyridin-2(1H)-yl)-7-methylquinoxalin-5-yl)ethyl)amino)picolinic acid] |
| 1.6 nM | 57.8 nM | COC(=O)c1nc(Cl)ccc1N[C@H](C)c1cc(C)cc2nc(C#N)c(N3CC[C@@](C)(F)C3)nc12 (single isomer, unassigned) [Example 180] |
| 1.4 nM | 121 nM | Cc1cc([C@@H](C)Nc2ccc(Cl)nc2C(=O)O)c2nc(N3CC(F)(F)C3)c(C#N)nc2c1 [Example 128, (R)-6-chloro-3-((1-(2-cyano-3-(3,3-difluoroazetidin-1-yl)-7-methylquinoxalin-5-yl)ethyl)amino)picolinic acid] |
| 1.3 nM | 33.8 nM | Cc1cc([C@@H](C)Nc2ccc(Cl)nc2C(=O)O)c2nc(N3C[C@@H](F)[C@@H](F)C3)c(C#N)nc2c1 [Example 122, 6-chloro-3-(((R)-1-(2-cyano-3-((3S,4R)-3,4-difluoropyrrolidin-1-yl)-7-methylquinoxalin-5-yl)ethyl)amino)picolinic acid] |
| 1.2 nM | 38.6 nM | COC[C@@H]1[C@H]2CN(c3nc4c([C@@H](C)Nc5ccc(Cl)nc5C(=O)O)cc(C)cc4nc3C#N)C[C@@H]12 [Example 166, 6-chloro-3-(((R)-1-(2-cyano-3-((1R,5S,6R)-6-(methoxymethyl)-3-azabicyclo[3.1.0]hexan-3-yl)-7-methylquinoxalin-5-yl)ethyl)amino)picolinic acid] |
| 1 nM | 31.3 nM | Cc1cc([C@@H](C)Nc2ccc(Cl)nc2C(=O)O)c2nc(N3CCN(c4ncc(C)s4)CC3)c(C#N)nc2c1 [Example 115, (R)-6-chloro-3-((1-(2-cyano-7-methyl-3-(4-(5-methylthiazol-2-yl)piperazin-1-yl)quinoxalin-5-yl)ethyl)amino)picolinic acid] |
| 0.8 nM | 24.8 nM | Cc1cc([C@@H](C)Nc2ccc(Cl)nc2C(=O)O)c2nc(N3CCC(c4ccnn4C)CC3)c(C#N)nc2c1 [Example 126, (R)-6-chloro-3-((1-(2-cyano-7-methyl-3-(4-(1-methyl-1H-pyrazol-5-yl)piperidin-1-yl)quinoxalin-5-yl)ethyl)amino)picolinic acid] |
| 0.5 nM | 24.4 nM | Cc1cc([C@@H](C)Nc2ccc(Cl)nc2C(=O)O)c2nc(N3C[C@H](F)[C@@H](F)C3)c(C#N)nc2c1 [Example 178, 6-chloro-3-(((R)-1-(2-cyano-3-((3S,4S)-3,4-difluoropyrrolidin-1-yl)-7-methylquinoxalin-5-yl)ethyl)amino)picolinic acid] |
| 0.5 nM | 19.4 nM | Cc1cc([C@@H](C)Nc2ccc(Cl)nc2C(=O)O)c2nc(N3CC[C@@H](F)C3)c(C#N)nc2c1 [Example 177, 6-chloro-3-(((R)-1-(2-cyano-3-((R)-3-fluoropyrrolidin-1-yl)-7-methylquinoxalin-5-yl)ethyl)amino)picolinic acid] |
| 0.3 nM | 26.8 nM | Cc1cc([C@@H](C)Nc2ccc(Cl)nc2C(=O)O)c2nc(N3C[C@@H]4C[C@H]3CO4)c(C#N)nc2c1 [Example 173, 3-(((R)-1-(3-((1S,4S)-2-oxa-5-azabicyclo[2.2.1]heptan-5-yl)-2-cyano-7-methylquinoxalin-5-yl)ethyl)amino)-6-chloropicolinic acid] |
